Experimental findings from ChEMBL document CHEMBL3638567, “2-heteroaryl carboxamides” (2015) are described below.

Sequence of Neuronal acetylcholine receptor subunit alpha-7 (Q05941 whole entry): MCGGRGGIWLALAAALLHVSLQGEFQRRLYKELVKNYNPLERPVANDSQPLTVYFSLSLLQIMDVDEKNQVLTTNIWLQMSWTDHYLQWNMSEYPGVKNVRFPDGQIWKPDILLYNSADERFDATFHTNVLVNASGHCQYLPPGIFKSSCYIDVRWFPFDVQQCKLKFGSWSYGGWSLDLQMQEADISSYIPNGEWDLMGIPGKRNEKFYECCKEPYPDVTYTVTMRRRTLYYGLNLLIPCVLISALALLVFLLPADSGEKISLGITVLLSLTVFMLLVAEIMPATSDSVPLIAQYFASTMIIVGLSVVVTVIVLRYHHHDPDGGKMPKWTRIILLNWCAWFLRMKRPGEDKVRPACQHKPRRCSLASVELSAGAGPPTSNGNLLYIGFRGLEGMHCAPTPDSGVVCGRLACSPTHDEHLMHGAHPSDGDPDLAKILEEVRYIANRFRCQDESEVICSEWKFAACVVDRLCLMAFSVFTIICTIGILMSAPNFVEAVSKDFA

The assay has as its target Neuronal acetylcholine receptor subunit alpha-7 (Rattus norvegicus, UniProt Q05941). Nature of the assay: Binding Assay: The [3H]-methyllycaconitine binding assay is a modification of the method described by Davies et al. in Neuropharmacol. 1999, 38, 679-690.Rat brain tissue (hippocampus or whole brain) is homogenized in homogenization buffer (10% w/v, 0.32 M sucrose, 1 mM EDTA, 0.1 mM phenylmethylsulphonyl fluoride (PMSF), 0.01% (w/v) NaN3, pH 7.4, 4 C.) at 600 rpm in a glass homogenizer. The homogenate is centrifuged (1000xg, 4 C., 10 min) and the supernatant is removed. The pellet is resuspended (20% w/v) and the suspension is centrifuged (1000xg, 4 C., 10 min). The two supernatants are combined and centrifuged (15 000xg, 4 C., 30 min). The pellet obtained in this way is referred to as the P2 fraction.The P2 pellet is suspended in binding buffer (50 mM Tris-HCl, 1 mM MgCl2, 120 mM NaCl, 5 mM KCl, 2 mM CaCl2, pH 7.4), and the suspension is centrifuged (15 000xg, 4 C., 30 min), twice.The residue is resuspended in binding buffer and incubated in a volume of 250 ul. It is filed as tissue-based.
As for `CNC(=O)NCc1ccccc1-c1cccc2cc(C(=O)N[C@H]3CN4CCC3CC4)sc12`, the inhibitory constant (Ki) was determined as 3.3 nM.

`CN1CCN(C(=O)c2cccc(-c3cccc4cc(C(=O)N[C@H]5CN6CCC5CC6)oc34)c2)CC1`: the inhibitory constant (Ki) is 14 nM.

Turning to `O=C(NC1CC1)c1cccc(-c2cccc3cc(C(=O)N[C@H]4CN5CCC4CC5)oc23)c1`, the Ki came out at 3 nM.

Broadly, the Ki is the equilibrium dissociation constant of an inhibitor or competing ligand from its target.
